Legend:
EMT6 tumors = experiment: murine biodistribution study (boron concentration in tissues by ICP-AES); type: in vivo, BALB/c mice
Protocol: The concentration of boron can be determined by inductively coupled plasma atomic emission spectroscopy (ICP-AES).
All murine biodistribution studies utilized female BALB/c mice (16-20 g), with EMT6 tumors implanted in the right flank 7-10 days prior to the experiment. […] Injections of liposome emulsions (200 μl) were made in the tail vein. Prior to sacrifice, each mouse was anesthetized with halothane and bled into heparinized syringes via cardiac puncture. The blood was then placed into tared cryogenic tubes. While under anesthesia, the mice were euthanized via cervical dislocation. The tumor, liver, and spleen were dissected and also placed in tared cryogenic tubes. Blood and tissues were stored frozen until analyzed.
Biodistributions are plotted as boron concentration in micrograms of boron per gram of tissue on the Y axis and time in hours on the X axis. In general, four tissues are analyzed: tumor and blood because of their therapeutic interest, and liver and spleen because these tissues are known to competitively bind liposomes in vivo.

[1] = chemical stability of borane anions towards water / moisture; type: physicochemical
Source text: The cleanest reaction is observed employing [Ph3PMe][B10H10] in CH2Cl2, but the reaction can be used with several salts of [B10H10]^2− including preferably cesium. tetramethylammonium and triethylammoniuim and with other solvents such as acetonitrile and tetrahydrofuran. […] The substituted boron is indicated by a high field resonance at −43.8 ppm (relative to BF3. Et2O) which is a singlet in the proton coupled spectrum. [Ph3PMe][2-B10H9CO] may be isolated a a light tan solid in 85% yield, or the reaction mixture may be used directly in further reactions. […] [Ph3PMe]2[2-B10H9CO2H] has been confirmed by crystallographic analysis.
A very useful transformation of [2-B10H9CO]^− occurs from its reaction with azide ion in acetonitrile. The carbonyl undergoes a Curtius-type rearrangement to form the isocyanate [2-B10H9NCO]^2−, indicated by an infrared absorption at 2304 cm^−1. […] The [2-B10H9CO]^− ion therefore offers a high-yield route to the production of many boron-rich species for boron neutron capture therapy. Detailed protocols of preparing certain of these species is as follows: […]

## Na2B10H10 [reference compound]
EMT6 tumors; FIG. 4, BALB/c mice bearing EMT6 tumors, tail vein injection
  tumor uptake begins at (initial tumor boron concentration): 10 µg/g

## Na3B20H17NH3 [free Na3B20H17NH3]
EMT6 tumors; FIG. 10, free, not liposome-encapsulated, injected in buffer
  initial distribution (accumulation) in the tumor: about 8 ppm

## [2-B10H9CO]^−
[1]; in the solid state or in solution
  sensitivity to moisture: relatively insensitive to moisture

## [2-B10H9NCO]^2−
[1]; acidic media
  stability in acidic media: rapidly hydrolyzed
[1]; neutral aqueous solution
  stability in neutral aqueous solution: stable

— patent US6517808B1, “Methods for boron delivery to mammalian tissue” (The Regents of the University of California, priority 1993, dated 2003)
